Assay results: patent publication US12251388B1, “Methods of treating ischemic stroke at risk for cerebral or cerebellar edema” (REMEDY PHARMACEUTICALS, INC., priority 2024, dated 2025)

Tested on: large hemispheric infarction (LHI) patients at high risk for cerebral edema
Assay: CHARM trial: mRS score at 90 days, shift analysis on 5-category ordinal scale (0/1 and 5/6 collapsed), intravenous glibenclamide versus placebo
Format: in vivo, human
Conditions: for Common Odds Ratio: mITT population (aged ≤70 years), drug vs placebo
Source text: The CHARM trial evaluated the safety and efficacy of intravenous glibenclamide as a treatment for large hemispheric infarction (LHI) patients at high risk for cerebral edema.
Patients meeting the following criteria were included: • A clinical diagnosis of acute ischemic stroke in the middle cerebral artery (MCA) territory. • A large hemispheric infarction defined as; lesion volume of 80 to 300 centimeters cubed (cm^3) on magnetic resonance imaging (MRI) diffusion-weighted imaging (DWI), or computed tomography perfusion (CTP), or an Alberta Stroke Program Early CT Score (ASPECTS) of 1 to 5 with involvement of at least 2 defined cortical regions. • Screening National Institutes of Health Stroke Scale (NIHSS)>=10. • At the time of randomization, and in the Investigator's judgement, it must be feasible for study drug treatment infusion to be initiated no later than 10 hours after time of symptom onset, if known, or the time last known normal. • Participants who wake with stroke may be included if neurological and other exclusion criteria are satisfied. The time of stroke onset is to be taken as the midpoint between sleep onset (or last known to be normal) and time of waking.
Patients meeting the following criteria were excluded: • Participant is likely to have supportive care withdrawn on the first day. • Commitment to decompressive craniectomy (DC) prior to enrollment. • Evidence of concurrent infarction in the contralateral hemisphere sufficiently serious so as to affect functional outcome. Pre-Specified Primary Endpoint
Modified Rankin Scale (mRS) score at 90 days analyzed as a shift analysis using a 5-category ordinal scale with 0/1 and 5/6 collapsed. The primary efficacy analysis was pre-specified to be conducted in participants 18-70 years of age (inclusive) who were randomized and receive study treatment (the modified intent-to-treat [mITT] population].
Five hundred thirty-five subjects were enrolled, with 268 treated with placebo and 267 treated with intravenous glyburide. The mITT population (the primary analysis population), those participants aged≤70 years who received any study drug, consisted of 431 subjects.
An analysis was conducted in the mITT population to examine effects of limits on the NIHSS. […] A common odds ratio of greater than 1 indicates a positive drug effect and in the group having an NIHSS of ≤20, the common odds ratio exceeded 1.7, indicating a robust effect in favor of the drug.

[1] = mRS scores 5 and 6 combined, baseline NIHSS ≥10 and ≤20

COc1ccc(Cl)cc1C(=O)NCCc1ccc(S(=O)(=O)NC(=O)NC2CCCCC2)cc1 [intravenous glyburide, glyburide]
Common Odds Ratio (NIHSS cutoff ≤18, mRS at 90 days, n=197): 2.027
Common Odds Ratio (NIHSS cutoff ≤19, mRS at 90 days, n=232): 1.846
Common Odds Ratio (NIHSS cutoff ≤21, mRS at 90 days, n=303): 1.260
Common Odds Ratio (NIHSS cutoff ≤22, mRS at 90 days, n=328): 1.144
Common Odds Ratio (NIHSS cutoff ≤23, mRS at 90 days, n=352): 1.142
lesion volume at the "no effect" level of the treatment effect (mRS) [1]: approximately 140 cm^3
lesion volume at which a robust treatment effect (mRS) is seen [1]: ≤ 125 cm^3
